Where two headings read alike, the source gives them in different places.
Conditions: for Nicotine flow across the skin: passive matrix-type patch containing 21 mg nicotine on human cadaver skin, average of test patches (n=4)
Experimental: Experiments were carried out by applying passive matrix-type nicotine patches containing 21 mg of nicotine to human cadaver skin and then periodically heating and cooling the patches over a period of 20 hours. Controls with no heating and cooling were tested concurrently. The test patches were subject to 3 cycles of heating and cooling while the control patches were not. Patches were heated for 2 hours, cooled for 5 hours, heated for 2 hours, cooled for 4 hours, heated for 2 hours, and cooled. Nicotine delivery across the skin was measured and averaged for control patches (n=2) and test patches (n=4).

CN1CCCC1c1cccnc1 (stereo not shown) [Nicotine]
Nicotine flow across the skin (first 2-hour heating period): around 4.9 mg/hr | Change of nicotine flow across the skin when heat was applied (heated and cooled test patches, 3 cycles over 20 hours, human cadaver skin): increased | Nicotine flow across the skin (second 2-hour heating period (after 5 hours cooling)): around 2.5 mg/hr | Nicotine flow across the skin (third 2-hour heating period (after 4 hours cooling)): around 1.8 mg/hr

Source: patent US20260014358A1, “THERMALLY REGULATED TRANSDERMAL DRUG DELIVERY SYSTEM” (Morningside Venture Investments Limited, priority 2018, published 2026)
